Reference: patent US11872230B2, “Method of treating a methionine-dependent cancer” (Agency for Science, Technology and Research, priority 2018, dated 2024)

Key:
[1] = test system: methionine cycle metabolites in TS cells; experiment: LC/MS abundance of methionine cycle metabolites 48 h after inhibitor treatment; type: cell-based, human; settings: 48 h FIDAS5 (10 μM), normalized to DMSO
Procedure: Cis-platinum (cis-Diammineplatinum(II) dichloride) and MG132 (10 μM final concentration) was purchased from Sigma, FIDAS-5 (final concentration of 10 μM in culture medium) from Merck Millipore and D9 (final concentration of 500 nM in culture medium).
For suspension cell culture, 10 million cells per sample were obtained and quenched with 4 volumes of ice-cold 150 mM sodium chloride solution. The cell pellets were collected by centrifugation of the quenched samples at 3000 g for 5 min at 4° C. and the supernatant was aspirated and discarded. For adherent cell culture, the media was gently aspirated and the cells on the surfaces of the well plates were gently washed with ice-cold 150 mM sodium chloride solution thrice. Ice-cold sodium chloride was added to the plate and a cell scraper was used to release adherent cells from the plate surface. The cell pellets were collected as described earlier and kept on ice. […]
For targeted LC/MS analysis, the chromatographic peak integration was performed using Targetlynx software (Waters Corp). In addition, for the ^13C-labeled methionine pulse-chase experiments, the atomic percent excess (APE) for each species was calculated and natural abundance corrected from an isotopomer matrix accounting for the presence of natural abundance carbons distributed throughout each possible parent/daughter ion combination (Table 3). […]

[2] = test system: histone methylation in TS cells; experiment: Western blot of methylated histones in TS cells; type: cell-based, human; settings: TS cells exposed transiently (48 h) to inhibitor
Procedure: 1.5×10^6 cells were lysed in Llaemli-SDS buffer and then sonicated. Total protein concentration was measured by Bradford assay. Total cell lysates were separated by SDS-PAGE and transferred onto nitrocellulose, followed by blocking in 5% (v/v) milk in Tris-buffered saline in Tween 20, probing with the indicated antibodies and visualized by chemiluminescence (Roche). Primary antibodies used were anti-β-Actin (sc-47778), anti-GAPDH (sc-32233) from Santa Cruz: anti-GLDC (ab97625), anti-H3 (ab1791), anti-H3 (dimethylK36) (ab9049), anti-MAT2A (ab77471), anti-MTR (ab9209), anti-H3 (trimethylK79) (ab2621), anti-MTHFR (ab125707), anti-MTAP (ab ab55517) from Abcam; anti-H3(trimethyl K4) (39159), anti-H3(trimethyl K27)(39155), anti-H3(trimethylK36)(61101) and anti-H3(trimethylK9)(39765) from Active Motif; anti-β-catenin (BD610154) from BD Biosciences; anti-SHMT2 (HPA020549) and anti-SAHH (WH0000191M8) from Sigma; anti-Symmetric Di-Methyl Arginine Motif (13222) from CST.
To evaluate the methionine cycle as a therapeutic target in lung TICs, small molecule inhibitors that target enzymes within this pathway were employed, mimicking the effects of short-term methionine starvation (FIG. 5a). two inhibitors known to perturb methionine cycle activity and cellular methylation levels: 1) MAT2A inhibitor, FIDAS5; and 2) SAHH inhibitor, D9, which is an analog of DZNep. In a manner similar to amino acid starvation studies, TS cells were exposed transiently to the compounds for 48 h in culture and were immediately used for downstream tumorigenesis assays.

TS cells (lung TICs) = experiment: Intraperitoneal administration to NSG mice subcutaneously implanted with lung TICs; type: in vivo; settings: FIDAS5 40 mg/kg i.p., three consecutive days, after 6 weeks
Excerpt: 5×10^5 single cells were mixed in a 1:1 mixture of serum free DMEM/F12 and Matrigel (BD) and injected subcutaneously into the flanks of 4-6 week old male and female NOD.Cg-Prkdc^scid Il2rg^tm1wjl SzJ (Jackson Laboratories). About 6 weeks later, or when tumor sizes exceed 2 cm in length, mice were sacrificed and tumors harvested for analysis. All animal experiments were approved by the Agency for Science Technology and Research Singapore—Biological Resource Centre. Mice were randomized by sex.
Since FIDAS5 appeared to more specifically disrupt the methionine cycle and inhibit cellular methylation activities compared to D9, it was sought to test whether its systemic delivery could impact the tumorigenic potential of TS cells. These highly tumorigenic cells were first subcutaneously implanted into NSG mice and FIDAS5 (40 mg/kg) or corn oil carrier was immediately administered via intraperitoneal injection for three consecutive days. After 6 weeks, mice transiently treated with FIDAS5 produced tumors that were much smaller than carrier-treated controls. […] To exclude the possibility of general cytotoxicity associated with the inhibitor on TS cells, TS cell-implanted NSG mice were treated with cisplatin (4 mg/kg), a frontline chemotherapeutic agent that broadly target bulk cancer cells in NSCLC tumors, in the same manner (FIG. 5i). […]

Adh cells = experiment: Proliferation of Adh cells grown in FIDAS5-containing media; type: cell-based, human
Procedure: Cells were seeded into 96-well plates at a density of 2,000 cells/well for TS cells and 500 cells/well for Adh cells. The relative number of viable cells was determined by the quantification of ATP using the CellTiter-Glo Luminescent Cell Viability Assay (Promega) system.

CNc1ccc(/C=C/c2c(F)cccc2Cl)cc1 [FIDAS5]
reduction of intracellular levels of SAH [1]: ~10 fold | reduction of intracellular levels of SAM [1]: ~10 fold | histone methylation levels [2]: complete ablation | tumor size vs carrier-treated controls (TS cells (lung TICs)): much smaller | proliferation in FIDAS5-containing media (Adh cells): far less affected
